Like-named read-outs stand apart in the source and are kept apart here.
Assays:
[1] = cited from earlier work
[2] = type: physicochemical
Description: To evaluate buffers with different pH, Dexamethasone sodium phosphate can be dissolved in an elution media (e.g. one of the different embodiments of the invention disclosed herein). […] This concentration was about 10 times the concentration that might be observed if the drug from the typical device was completely eluted in about 75 mL of media.

[3] = Elution of steroid from drug eluting leads/electrodes in conventional media (PBS without additives); type: physicochemical; details: conventional media systems, e.g. media with just a surfactant; result in words
From the text: The percent elution was less than 7% in 10 days from the controlled-release device (CRD) leads when PBS ([…]) without any additives was used.

stability with respect to pH (order) [2]	elution in conventional media/solvents [3]	Structure (SMILES)	solubility in water [1]	solubility in water ([1]; result in words, listed as dexamethasone sodium phosphate)	solubility in water ([1]; result in words)
		OCc1ccccc1 [Benzyl alcohol, Phenylmethanol]	4 g/100 mL		
pH 4>pH 7.5>pH 9	minimal	C[C@@H]1C[C@H]2[C@@H]3CCC4=CC(=O)C=C[C@]4(C)[C@@]3(F)[C@@H](O)C[C@]2(C)[C@@]1(O)C(=O)COP(=O)(O)O [Dexamethasone sodium phosphate]		water soluble	freely soluble
